Ki data for 27 compounds are collected here from patent US7452862B2, “Conformationally-controlled biologically active macrocyclic small molecules as motilin antagonists or ghrelin agonists” (Tranzyme Pharma, Inc., priority 2003, dated 2008).

T2 sequence (Q92847 whole entry): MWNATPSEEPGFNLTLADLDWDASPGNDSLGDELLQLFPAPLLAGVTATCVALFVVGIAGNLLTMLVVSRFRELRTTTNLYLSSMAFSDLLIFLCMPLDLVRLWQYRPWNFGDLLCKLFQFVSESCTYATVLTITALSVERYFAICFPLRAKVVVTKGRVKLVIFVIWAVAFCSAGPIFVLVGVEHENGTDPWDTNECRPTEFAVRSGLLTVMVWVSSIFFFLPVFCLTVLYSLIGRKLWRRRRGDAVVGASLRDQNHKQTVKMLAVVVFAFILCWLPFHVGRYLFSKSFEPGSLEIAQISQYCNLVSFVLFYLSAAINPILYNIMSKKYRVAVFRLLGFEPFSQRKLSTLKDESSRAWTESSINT

The target of the first assay is T1, human motilin receptor (Homo sapiens, UniProt O43193).
T1 construct: purchased PerkinElmer 6110544; host or cells: CHO cells, stably transfected
T1 sequence (O43193 whole entry): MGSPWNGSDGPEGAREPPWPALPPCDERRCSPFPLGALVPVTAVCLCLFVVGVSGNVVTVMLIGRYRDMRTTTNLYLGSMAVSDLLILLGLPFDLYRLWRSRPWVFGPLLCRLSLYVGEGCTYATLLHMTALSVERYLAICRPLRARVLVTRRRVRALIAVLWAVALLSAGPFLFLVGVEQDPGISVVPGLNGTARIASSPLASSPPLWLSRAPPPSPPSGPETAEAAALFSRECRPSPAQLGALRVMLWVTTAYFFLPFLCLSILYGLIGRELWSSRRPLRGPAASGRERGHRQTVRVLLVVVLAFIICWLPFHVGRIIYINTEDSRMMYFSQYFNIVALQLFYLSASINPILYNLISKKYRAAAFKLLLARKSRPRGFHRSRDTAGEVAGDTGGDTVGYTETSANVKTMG
The assay is described as follows: Competitive radioligand binding assay (motilin receptor), Method B1. The following applies: read-out: Binding Affinity [Ki (μM)]. As to the method: (§1) The compounds of the present invention were evaluated for their ability to interact at the human motilin receptor and the human ghrelin receptor utilizing competitive redioligand binding assays as described in Method B1 and B2, respectively. Further characterization of the interaction can be performed utilizing the functional assays described in Methods B3 and B4 for the motilin and ghrelin receptors, respectively. All of these methods can be conducted, if so desired, in a high throughput manner to permit the simultaneous evaluation of many compounds.
Competitive Radioligand Binding Assay (Motilin Receptor)
• Membranes were prepared from CHO cells stably transfected with the human motilin receptor and utilized at a quantity of 1.5 μg/assay point. [PerkinElmer™ SignalScreen® Product #6110544, PerkinElmer, Inc. Wellesley, MA] • [^125I]-Motilin (PerkinElmer, #NEX-378); final concentration: 0.04-0.06 nM • Motilin (Bachem™, #H-4385, Bachem Bioscience Inc., King of Prussia, PA.); final concentration: 1 μM • Multiscreen® Harvest plates-GF/B (Millipore™, #MAHFB1H60, Billerica, MA) • Deep-well polypropylene titer plate (Beckman Coulter™,#267006, Fullerton, CA) • TopSeal-A™ (PerkinElmer, #6005185, Wellesley, MA) • Bottom seal (Millipore, #MATAH0P00) • MicroScint-0™(PerkinElmer,#6013611, Wellesley, MA) • Binding Buffer: 50 mM Tris-HCl (pH 7.4), 10 mM MgCl2, 1 mM EDTA, 0.1% BSA Assay Volumes: • 150 μL of membranes diluted in binding buffer • 10 μL of compound diluted in binding buffer • 10 μL of radioligand ([^125I]-Motilin) diluted in binding buffer Final Test Concentrations (N=11) for Compounds: • 10, 5, 2, 1, 0.5, 0.2, 0.1, 0.05, 0.02, 0.01, 0.005 μM. Compound Handling:
Compounds were provided frozen on dry ice at a stock concentration of 10 mM diluted in 100% DMSO and stored at −20° C. until the day of testing. On the test day, compounds were allowed to thaw at room temperature and than diluted in assay buffer according to the desired test concentrations. Under these conditions, the maximum final DMSO concentration in the assay was 0.5%.
In deep-well plates, diluted cell membranes (1.5 μg/mL) are combined with 10 μL of either binding buffer (total binding, N=5), 1 μM motilin (non-specific binding, N=3) or the appropriate concentration of test compound. The reaction is initiated by addition of 10 μl of [^125I]-motilin (final conc. 0.04-0.06 nM) to each well. Plates are sealed with TopSeal-A™, vortexed gently and incubated at room temperature for 2 hours. The reaction is arrested by filtering samples through pre-soaked (0.3% polyethyleneimine, 2 h) Multiscreen®Harvest plates using a Tomtec® Harvester (Tomtec, Hamden, CT), washed 9 times with 500 μL of cold 50 mM Tris-HCI (pH 7.4), and than plates are air-dried in a fumehood for 30 minutes. A bottom seal is applied to the plates prior to the addition of 25 μL of MicroScint-0 ® to each well. Plates are then sealed with TopSeal-A™ and counted for 30 sec per well on a TopCount® Microplate Scintillation and Luminescence Counter (PerkinElmer, Wellesley, MA) where results are expressed as counts per minute (cpm).
Data are analyzed by GrapbPad™ Prism® (GraphPad Software, San Diego, CA) using a variable slope non-linear regression analysis.
[formula] where total and non-specific binding represent the cpm obtained in the absence or presence of 1 μM motilin, respectively.
The Ki is the equilibrium dissociation constant of an inhibitor or competing ligand from its target. As for `CC(C)[C@H]1NC(=O)[C@@H](Cc2cccc(F)c2)NC[C@@H](C)Oc2ccccc2CCCNC(=O)[C@H](CC2CC2)NC1=O` [compound 220], the inhibitory constant (Ki) lay within 0.1 to 1 µM.
On the same count and under the same terms, the result for `CCC[C@@H]1NC(=O)[C@@H](C(C)C)NC(=O)[C@@H](Cc2ccc(O)cc2)NC[C@H](C)Oc2ccccc2CCCNC1=O` [compound 226] reads 0.1 to 1 µM; that for `CC(C)[C@H]1NC(=O)[C@@H](Cc2cccc(F)c2)NCCOc2ccccc2C[C@@H](O)CNC(=O)[C@H](CC2CC2)NC1=O` [compound 219], 0.1 to 1 µM.
Regarding `CCC[C@@H]1NC(=O)[C@@H](C(C)C)NC(=O)[C@@H](Cc2ccc(OC)cc2)NC(C)COc2ccccc2CCCNC1=O` (stereo partly drawn) [compound 222], the Ki was in the range of 0.001 to 0.1 µM.
Same read-out and setting: with `CC(C)[C@H]1NC(=O)[C@@H](Cc2cccc(C(F)(F)F)c2)NCCOc2ccccc2C[C@H](C)CNC(=O)[C@H](CNC(=N)N)NC1=O` [compound 201] the figure was 0.001 to 0.1 µM; with `CC(C)[C@H]1NC(=O)[C@@H](Cc2cccc(F)c2)NCCOc2ccccc2C[C@@H](C)CNC(=O)[C@H](CN(C)C)NC1=O` [compound 205], 0.1 to 1 µM.
Same read-out and setting: with `CC1CNC(=O)[C@H](CC2CC2)NC(=O)[C@@H](C(C)C)NC(=O)[C@@H](Cc2cccc(Cl)c2)NCCOc2ccccc2C1` (stereo partly drawn) [compound 209] the figure was 0.001 to 0.1 µM.
Still for that read-out and setting: the result for `CC(C)[C@H]1NC(=O)[C@@H](Cc2cccc(Cl)c2)NCCOc2ccccc2C[C@H](O)CNC(=O)[C@H](CC2CC2)NC1=O` [compound 215] reads 0.001 to 0.1 µM; that for `CC(C)[C@H]1NC(=O)[C@@H](Cc2cccc(Cl)c2)NCCOc2ccccc2C[C@@H](C)CNC(=O)[C@H](CC2CC2)NC1=O` [compound 211], 0.001 to 0.1 µM; that for `CCC[C@@H]1NC(=O)[C@@H](C(C)C)NC(=O)[C@@H](Cc2ccc(O)cc2)NC[C@@H](C)Oc2ccccc2CCCNC1=O` [compound 227], 0.1 to 1 µM.
`CC(C)[C@H]1NC(=O)[C@@H](Cc2cccc(Cl)c2)NCCOc2ccccc2C[C@@H](O)CNC(=O)[C@H](CC2CC2)NC1=O` [compound 216]: the Ki was 0.001 to 0.1 µM.
On the same count and under the same terms, with `CC(C)[C@H]1NC(=O)[C@@H](Cc2cccc(F)c2)N[C@H](C)COc2ccccc2CCCNC(=O)[C@H](CC2CC2)NC1=O` [compound 217] the figure was 0.1 to 1 µM; with `CC(C)[C@H]1NC(=O)[C@@H](Cc2cccc(Cl)c2)N[C@@H](C)COc2ccccc2CCCNC(=O)[C@H](CNC(=N)N)NC1=O` [compound 203], 0.001 to 0.1 µM; with `CC(C)[C@H]1NC(=O)[C@@H](Cc2cccc(Cl)c2)NCCOc2ccccc2C[C@H](C)CNC(=O)[C@H](CC2CC2)NC1=O` [compound 207], 0.001 to 0.1 µM.
With `CC(C)[C@H]1NC(=O)[C@@H](Cc2cccc(F)c2)NCCOc2ccccc2C[C@@H](C)CNC(=O)[C@H](CC2CC2)NC1=O` [compound 214], the inhibitory constant (Ki) fell in the range of 0.001 to 0.1 µM.
With `CC(C)[C@H]1NC(=O)[C@@H](Cc2cccc(F)c2)N[C@@H](C)COc2ccccc2CCCNC(=O)[C@H](CC2CC2)NC1=O` [compound 208], the Ki is 0.001 to 0.1 µM.
Still for that read-out and setting: with `CC(C)[C@H]1NC(=O)[C@@H](Cc2cccc(C(F)(F)F)c2)NCCOc2ccccc2C[C@@H](C)CNC(=O)[C@H](CNC(=N)N)NC1=O` [compound 204] the figure was 0.001 to 0.1 µM; with `CC1COc2ccccc2CCCNC(=O)[C@H](CC2CC2)NC(=O)[C@@H](C(C)C)NC(=O)[C@@H](Cc2cccc(Cl)c2)N1` (stereo partly drawn) [compound 223], 0.001 to 0.1 µM.
Same read-out and setting: with `CC(C)[C@H]1NC(=O)[C@@H](Cc2cccc(F)c2)NCCOc2ccccc2C[C@H](O)CNC(=O)[C@H](CC2CC2)NC1=O` [compound 218] the figure was 0.1 to 1 µM.

The next assay has as its target T2, human ghrelin receptor (hGHS-R1a) (Homo sapiens, UniProt Q92847).
T2 construct: purchased PerkinElmer BioSignal RBHGHSM, lot#1887; host or cells: HEK-293 cells, stably transfected
The assay is described as follows: Competitive radioligand binding assay (ghrelin receptor), Method B2. The following applies: read-out: Binding Affinity [Ki (μM)]. How it is done: as §1
Competitive Radioligand Binding Assay (Ghrelin Receptor)
The competitive binding assay at the human growth hormone secretagogue receptor (hGHS-R1a) was carried out analogously to assays described in the literature. (Bednarek M A et al. (2000), Structure-function studies on the new growth hormone-releasing peptide ghrelin: minimal sequence of ghrelin necessary for activation of growth hormone secretagogue receptor 1 a; J Med Chem 43:43704376. Palucki B L et al. (2001), Spiro(indoline-3,4′-piperidine) growth hormone secretagogues as ghrelin mimetics; Bioorg Med Chem Lett 11:1955-1957.)
• Membranes (GHS-R/HEK 293) were prepared from HEK-293 cells stably transfected with the human ghrelin receptor (hGHS-Rla). These membranes were provided by PerkinElmer BioSignal® (#RBHGHSM, lot#1887, PerkinlElmer, Wellesley, MA) and utilized at a quantity of 0.71 μg/assay point. • [^125I]-Ghrelin (PerkinElmer, #NEX-388); final concentration: 0.0070-0.0085 nM • Ghrelin(Bachem, #H-4864, Bachem Bioscience Inc., King of Prussia, PA); final concentration: 1 μM • Multiscreen® Harvest plates-GF/C (Millipore, #MAHFC1H60, Billerica, MA) • Deep-well polypropylene titer plate (Beckman Coulter, #267006, Fullerton, CA) • TopSeal-A™ (PerkinElmer, #6005185, Wellesley, MA) • Bottom seal (Millipore, #MATAH0P00) • MicroScint-0™ (PerkinElmer, #6013611, Wellesley, MA) • Binding Buffer: 25 mM Hepes (pH 7.4), 1 mM CaCl2, 5 mM MgCl2, 2.5 mM EDTA, 0.4% BSA Assay Volumes
Competition experiments were performed in a 300 μL filtration assay format. • 220 μL of membranes diluted in binding buffer • 40 μL of compound diluted in binding buffer • 40 μL of radioligand ([^125I]-Ghrelin) diluted in binding buffer
Final test concentrations (N=1) for compounds of the present invention: • 10, 1, 0.5, 0.2, 0.1, 0.05, 0.02, 0.01, 0.005, 0.002, 0.001 μM. Compound Handling
Compounds were provided frozen on dry ice at a stock concentration of 10 mM diluted in 100% DMSO and stored at −80° C. until the day of testing. On the test day, compounds were allowed to thaw at rt overnight and then diluted in assay buffer according to the desired test concentrations. Under these conditions, the maximal final DMSO concentration in the assay was 0.1%.
In deep-well plates, 220 μL of diluted cell membranes (final concentration: 0.71 μg/well) were combined with 40 μL of either binding buffer (total binding, N =5), 1 μM ghrelin (non-specific binding, N =3) or the appropriate concentration of test compound (N =2 for each test concentration). The reaction was initiated by addition of 40 μL of [^125I]-ghrelin (final conc. 0.0070-0.0085 nM) to each well. Plates were sealed with TopSeal-A™, vortexed gently and incubated at rt for 30 min. The reaction was arrested by filtering samples through Multiscreen® Harvest plates (pre-soaked in 0.5% polyethyleneimine) using a Tomtec®Harvester (Tomtec, Hamden, CT), washed 9 times with 500 μL of cold 50 mM Tris-HCl (pH 7.4, 4° C), and then plates were air-dried in a fumehood for 30 min. A bottom seal was applied to the plates prior to the addition of 25 μL of MicroScint-0™ to each well. Plates were than sealed with TopSeal-A™ and counted for 30 sec per well on a TopCount® Microplate Scintillation and Luminescence Counter (PerkinElmer, Wellesley, MA) using a count delay of 60 sec. Results were expressed as counts per minute (cpm). […]
With `CC1CNC(C2CC2)C(=O)N(C)C(C)C(=O)NC(Cc2ccc(F)cc2)C(=O)NCCCc2ccccc2O1` (stereo not drawn) [compound 244], the Ki was in the range of 0.001 to 0.1 µM.
The same measure, in the same setting: with `CCC(C)[C@@H]1NC[C@H](C)Oc2ccccc2CCCNC(=O)[C@@H](Cc2ccccc2)NC(=O)[C@@H](C)N(C)C1=O` (stereo partly drawn) [compound 243] the figure was 0.001 to 0.1 µM; with `CC1CNC(=O)C(Cc2ccc(F)cc2)NC(=O)C(C)N(C)C(=O)C(C2CC2)NCCOc2ccccc2C1` (stereo not drawn) [compound 248], 0.1 to 1 µM; with `CCC(C)C1NCCOc2ccccc2C(C)CCNC(=O)C(Cc2cccc(Cl)c2)NC(=O)C2(CCCC2)NC1=O` (stereo not drawn) [compound 256], 0.1 to 1 µM.
Same read-out and setting: the result for `CCC(C)C1NCCOc2ccccc2CC(C)CNC(=O)C(Cc2cccc(Cl)c2)NC(=O)C2(CCCC2)NC1=O` (stereo not drawn) [compound 257] reads 0.001 to 0.1 µM; that for `CCC(C)[C@@H]1NC[C@@H](C)Oc2ccccc2CCCNC(=O)[C@@H](Cc2ccccc2)NC(=O)[C@@H](C)N(C)C1=O` (stereo partly drawn) [compound 242], 0.001 to 0.1 µM; that for `CC1COc2ccccc2CCCNC(=O)C(Cc2ccc(F)cc2)NC(=O)C(C)N(C)C(=O)C(C2CC2)N1` (stereo not drawn) [compound 241], 0.001 to 0.1 µM.
Same read-out and setting: the result for `CCC(C)C1NCC(C)Oc2ccccc2CCCNC(=O)C(Cc2cccc(Cl)c2)NC(=O)C2(CCCC2)NC1=O` (stereo not drawn) [compound 254] reads 0.001 to 0.1 µM.
